Calls of active or inactive are those of the source. The rule behind the calls is not given here.

By Ki is commonly meant the equilibrium dissociation constant of an inhibitor or competing ligand from its target. The IC50 is the concentration needed to halve the response being measured.

The species named for assay [1] is Rattus norvegicus. The experiment in a line: Inhibition of immobilized rat intestinal alpha-glucosidase using 4-nitrophenyl-alpha-D-glucopyranoside as substrate assessed as enzyme activity after 30 mins by spectrophotometry relative to control. On the set-up: concentration or dose not given beside the values.
The species named for assay [2] is Sus scrofa. As to the kind of experiment: Mixed-type inhibition of pig pancreas soluble alpha-amylase using 4-nitrophenyl-alpha-D-maltopentaoside as substrate assessed as formation of inactive enzyme-inhibitor complex after 30 mins by spectrophotometry.
The nature of assay [3]: […] inhibition of pig pancreas soluble alpha-amylase using 4-nitrophenyl-alpha-D-maltopentaoside as substrate assessed as enzyme-inhibitor dissociation constant after 30 mins by double reciprocal plot method. On the set-up: species or system Sus scrofa.
Assay [4] is described as follows: Inhibition of pig pancreas soluble alpha-amylase using 4-nitrophenyl-alpha-D-maltopentaoside as substrate after 30 mins by spectrophotometry. On the set-up: species or system Sus scrofa.
Assay [5] in a line: […] inhibition of pig pancreas soluble alpha-amylase using 4-nitrophenyl-alpha-D-maltopentaoside as substrate assessed as enzyme-substrate-inhibitor dissociation constant after 30 mins by double reciprocal plot method. On the set-up: species or system Sus scrofa.

For `C[C@H]1O[C@H](O[C@H]2[C@H](O)[C@@H](O)[C@@H](O[C@H]3[C@H](O)[C@@H](O)C(O)O[C@@H]3CO)O[C@@H]2CO)[C@H](O)[C@@H](O)[C@@H]1N[C@H]1C=C(CO)[C@@H](O)[C@H](O)[C@H]1O` (some centres not stated), the Activity in assay [1] amounted to 34.4%.
In the case of `OC[C@@H](Cc1cccc(O)c1)[C@@H](CO)Cc1cccc(O)c1` [(+)-ENTERODIOL], the inhibition entry in assay [2] is “Active”. For the same compound, the Ki in assay [3] was determined as 94.1 µM; in assay [5], 40.3 µM. Further, the Activity in assay [1] was 69.9%. The same compound showed an IC50 in assay [4] of 8.6 µM.
Turning to `O=C1OC[C@@H](Cc2cccc(O)c2)[C@@H]1Cc1cccc(O)c1` [(+)-ENTEROLACTONE], in assay [1], the Activity was found to be 73.9%. For the same compound, in assay [4], the IC50 was 10.9 µM.
Taken in the same sequence, the figures for `COc1cc(C[C@H](CO[C@@H]2O[C@H](CO)[C@@H](O)[C@H](O)[C@H]2O)[C@@H](CO[C@@H]2O[C@H](CO)[C@@H](O)[C@H](O)[C@H]2O)Cc2ccc(O)c(OC)c2)ccc1O` [(+)-SECOISOLARICIRESINOLDIGLUCOSIDE] were 74.3% and 15.7 µM.
`COc1cc(C[C@@H](CO)[C@H](CO)Cc2ccc(O)c(OC)c2)ccc1O` [(+)-SECOISOLARICIRESINOL]: the Activity in assay [1] was determined as 72.4%. This compound returned an IC50 in assay [4] of 9.5 µM.

Values taken from ChEMBL document CHEMBL2390821, “Flaxseed (Linum usitatissimum L.) extract as well as (+)-secoisolariciresinol diglucoside and its mammalian derivatives are potent inhibitors of α-amylase activity” (Bioorg Med Chem Lett, 2013).
